Results on 14 molecules are retold here after article PMC3125126 (European journal of pharmacology, 2010).

Where “and” joins values, the source holds several entries; their conditions need not be identical. Identical values can stand only once. Like-named read-outs stand apart in the source and are kept apart here.

In assay [1] the test system is Ca2+-independent phospholipase A2. The following applies: ref Yang et al., 1999; cited from earlier work.
The test system of assay [2] is dopamine transporter. The following applies: ref Chen et al., 2003, cited from earlier work.
Assay [3] concerns Ca2+-dependent phospholipase A2. The following applies: ref Street et al., 1993; cited from earlier work.
Assay [4] addresses T1, human dopamine transporter (hDAT) (Homo sapiens, UniProt Q01959). The experiment in a line: [125I]RTI-55 binding to membranes of HEK-D2-hDAT cells. As to conditions: no melittin, 4°C, 16 h, 4 independent experiments.
In another assay the test system is protein kinase Cγ. The following applies: bovine cerebellar cells; ref Shearman et al., 1989; cited from earlier work.
The test system of assay [5] is rat glutamate transporter, EAAT4. As to conditions: ref Fairman et al., 1998, Tzingounis et al.; cited from earlier work.
Assay [6] has as its system purified synaptosomes from rat striatum. As to conditions: rat striatal synaptosomes; ref L'hirondel et al., 1995; cited from earlier work.
Assay [7] relates to dopamine transporter. As to conditions: ref Ingram and Amara, 2000; cited from earlier work.
Another assay has as its system glutamate uptake. The following applies: ref Volterra et al., 1992, 1994; cited from earlier work.
Assay [8] addresses T1, human dopamine transporter (hDAT). It is filed as cell-based. As to conditions: butaclamol 100 nM added 10 min before uptake, with melittin 30 min pretreatment.
In assay [9] the test system is dopamine transporter. As to conditions: ref Daniels and Amara, 1999; cited from earlier work.
In assay [10] the target is T1, human dopamine transporter (hDAT). The experiment in a line: Dopamine transporter internalization by biotinylation. It is filed as cell-based.
The test system of assay [11] is phospholipase C activity in HEK-D2-hDAT cells. In kind it is cell-based, human.
Assay [12] concerns phospholipase A2 activity in HEK-D2-hDAT cells. Briefly: Phospholipase A2 activity after cell treatment. In kind it is cell-based, human. As to conditions: melittin 10 µM and/or quinacrine 10 µM, 30 min; n=3; not significant P>0.05.
The next assay relates to rat Leydig cells. The following applies: ref Ronco et al., 2002; cited from earlier work.
The subject of assay [13] is rat (ventral tegmental area). The following applies: pretreatment with quinacrine; ref Reid et al., 1996; cited from earlier work.
Another assay deals with HEK-D2-hDAT cells. Briefly: [3H]Arachidonic acid release from preloaded cells. In kind it is cell-based, human. The following applies: quinpirole 1 nM to 10 µM; loaded 4 or 24 hours; data not shown.
The subject of assay [14] is GTP binding regulatory proteins. As to conditions: ref Higashijima et al., 1988; cited from earlier work.
The conditions of assay [15]: ref Sugama et al., 2005; Nakamura et al., 2004; cited from earlier work.

T1 sequence (Q01959 whole entry): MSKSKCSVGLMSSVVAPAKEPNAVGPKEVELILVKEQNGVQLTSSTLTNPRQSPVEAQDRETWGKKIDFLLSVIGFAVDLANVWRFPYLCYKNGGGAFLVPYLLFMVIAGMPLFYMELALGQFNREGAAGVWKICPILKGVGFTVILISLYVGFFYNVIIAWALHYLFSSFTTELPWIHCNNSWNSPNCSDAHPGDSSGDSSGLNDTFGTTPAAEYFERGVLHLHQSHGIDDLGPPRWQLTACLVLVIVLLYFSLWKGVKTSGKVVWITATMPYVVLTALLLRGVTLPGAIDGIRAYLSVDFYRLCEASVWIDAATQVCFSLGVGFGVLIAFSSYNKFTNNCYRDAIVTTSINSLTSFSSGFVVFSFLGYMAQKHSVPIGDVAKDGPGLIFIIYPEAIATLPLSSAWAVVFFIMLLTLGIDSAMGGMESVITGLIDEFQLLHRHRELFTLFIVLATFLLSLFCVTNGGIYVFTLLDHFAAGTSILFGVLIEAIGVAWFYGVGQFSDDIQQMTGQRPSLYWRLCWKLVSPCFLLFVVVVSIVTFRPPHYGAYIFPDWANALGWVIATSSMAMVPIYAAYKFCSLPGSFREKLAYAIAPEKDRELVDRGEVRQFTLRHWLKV

Consider `O=C1O/C(=C/Br)CCC1c1cccc2ccccc12` (stereo not shown) [4-bromoenol lactone], for which the “inhibition of Ca2+-independent phospholipase A2” value in [1] is recorded as “selectively inhibited”.

As to `CCCCC/C=C\C/C=C\C/C=C\C/C=C\CCCC(=O)OCC` [Arachidonic acid ethyl ester], the “effect on dopamine transporter function (mimicry of arachidonic acid)” value with dopamine transporter [2] (Ingram and Amara, 2000) was “does not mimic the effects of arachidonic acid on dopamine transporter function”.

Turning to `CCCCC/C=C\C/C=C\C/C=C\C/C=C\CCCC(=O)C(F)(F)F` [Arachidonyl trifluoromethyl ketone], the “inhibition of Ca2+-dependent phospholipase A2” value in assay [3] is “potent and selective inhibitor”.

With `COC(=O)[C@H]1C(c2ccc(I)cc2)C[C@@H]2CC[C@H]1N2C` (stereo partly shown) [RTI-55], in assay [4] (protease inhibitors), the “RTI-55 Bmax” value was found to be 6.7 ± 0.8 pmol/mg. The Kd in assay [4] (read-out: RTI-55 KD) turned out to be 8.3 ± 1.8 nM.

On to `CCCCC/C=C\C/C=C\C/C=C\C/C=C\CCCC(=O)O` [arachidonic acid], for which the “dopamine uptake by rotating disk electrode voltammetry” value in the assay with dopamine transporter [2] is on record as “decrease in dopamine uptake”. In the assay on protein kinase Cγ, the “protein kinase Cγ activation” value was “can activate protein kinase Cγ”. The “effect on proton conductance” value in assay [5] was “alters proton conductance”. For the same molecule, in assay [6], the “spontaneous dopamine release, dopamine synthesis and uptake” value is “dose-dependently increases spontaneous release of dopamine and decreases dopamine synthesis and uptake”. In addition, in the assay with dopamine transporter [7], the “effect on cation conductance” value is “directly stimulates a cocaine-sensitive cation conductance”. Besides, the “effect on uptake of glutamate” value with glutamate uptake was “inhibits uptake of glutamate”.

As to `CC(C)(C)[C@]1(O)CCN2C[C@H]3c4ccccc4CCc4cccc(c43)[C@@H]2C1` [butaclamol], in [8], the “effect of D2 receptor block on [3H]dopamine uptake” value is “no difference in [^3H]dopamine uptake”.

Take `COC(=O)[C@H]1[C@@H](OC(=O)c2ccccc2)C[C@@H]2CC[C@H]1N2C` [cocaine]: the “effect on phorbol ester-induced dopamine transporter internalization” value with dopamine transporter [9] is recorded as “does not alter phorbol ester-induced dopamine transporter internalization”. For the same molecule, in assay [10], the dopamine transporter internalization is 97.8 ± 6.2 % of control and 93.9 ± 8.4 % of control.

For the molecule `NCCc1ccc(O)c(O)c1` [dopamine], the “inositol phosphate-1 concentration” value in [11] came out at 8.8 ± 3.0 nM.

`CCCCC/C=C\C/C=C\CCCCCCCC(=O)O` [linoleic acid]: in the assay with dopamine transporter [2], the “dopamine uptake by rotating disk electrode voltammetry” value was “inhibit dopamine transporter-mediated uptake, although to a lesser degree”.

As to `NC[C@@H]1O[C@H](O[C@H]2[C@@H](O)[C@H](O[C@@H]3[C@@H](O)[C@H](N)C[C@H](N)[C@H]3O[C@H]3O[C@H](CN)[C@@H](O)[C@H](O)[C@H]3N)O[C@@H]2CO)[C@H](N)[C@@H](O)[C@@H]1O` [neomycin], in assay [11] (neomycin 30 µM pretreatment, melittin 1.3 µM, 1 hour), the “phospholipase C activity in presence of melittin without or with neomycin” value is listed as “no significant difference”.

Consider `CCCCCCCC/C=C\CCCCCCCC(=O)O` [oleic, oleic acid], for which the “dopamine uptake by rotating disk electrode voltammetry” value in the assay on dopamine transporter [2] is listed as “inhibit dopamine transporter-mediated uptake, although to a lesser degree”.

In the case of `CCN(CC)CCCC(C)Nc1c2ccc(Cl)cc2nc2ccc(OC)cc12` (stereo not shown) [quinacrine], the “phospholipase A2 activity” value in [12] is 134 ± 19 % compared to control. Moreover, the “effect on melittin-induced arachidonic acid release” value in the assay with rat Leydig cells is “unable to inhibit melittin-induced release of arachidonic acid”. For the same molecule, in assay [13], the “block of melittin-caused sensitization” value was “blocked”.

`CCCN1CCC[C@@H]2Cc3n[nH]cc3C[C@H]21` [quinpirole]: the “inositol phosphate-1 concentration” value in assay [11] (quinpirole 1 µM, 1 hour, basal 8.3 ± 2.5 nM, n=3, not significant P>0.05) came to 11.1 ± 2.0 nM. Besides, the “release of loaded [3H]arachidonic acid” value in the assay with HEK-D2-hDAT cells is listed as “less than 0.4%”.

Consider mastoparan, for which, in assay [14], the “stimulation of GTP binding regulatory proteins” value is recorded as “stimulate GTP binding regulatory proteins indirectly”. Besides, the “effect on membrane lipid rafts” value in assay [15] was “disrupts the membrane lipid rafts”.
